How the values were obtained:
[1] = target: T1, Rat brain protein farnesyltransferase (Rattus norvegicus, UniProt Q02293+Q04631); assay: In vitro inhibition of protein farnesyltransferase (biotin-lamin substrate, scintillation proximity assay); assay type: biochemical; settings: for inhibition at 10 µM: compared to uninhibited control; for inhibition at 1 µM: 1 μM (footnote *), read-out: % Inhibition at 1 μM (protein farnesyltransferase, values marked *)
T1 construct: The enzyme was purified according to Reiss, Y., et al., Cell, 62: 81-88 (1990), utilizing steps one through three; from tissue; host or cells: rat brain
Description: In vitro inhibition of protein farnesyltransferase may be measured by the following procedure. (Procedures for determination of the inhibition of farnesylation of the oncogene protein Ras are described by Goldstein, et al., J. Biol. Chem., 266: 15575-15578 (1991) and by Singh in U.S. Pat. No. 5,245,061 both of which are incorporated herein by reference.)
Rat brain protein farnesyltransferase activity was measured using the biotin-lamin substrate (which is known to undergo farnesylation in a manner analogous to Ras protein) and radioactive farnesyl diphosphate provided by Amersham Life Science in their commercial scintillation proximity assay kit for the determination of farnesyltransferase. The enzyme was purified according to Reiss, Y., et al., Cell, 62: 81-88 (1990), utilizing steps one through three. The specific activity of the enzyme was approximately 10 nmol substrate farnesylated/mg enzyme/hour. […]

[2] = target: T2, Rat liver microsomal squalene synthase (Rattus norvegicus, UniProt Q02769); assay: In vitro inhibition of squalene synthase (rat liver microsomes, 3H-farnesyl diphosphate); assay type: biochemical; settings: for inhibition at 10 µM: 10 μM (footnote *), read-out: % Inhibition at 10 μM (squalene synthase, values marked *); for inhibition at 1 µM: compared to controls with no test compound
T2 construct: Rat liver microsomes, the source of enzyme, were prepared; from tissue; host or cells: rat liver microsomes
T2 sequence (Q02769 1-416): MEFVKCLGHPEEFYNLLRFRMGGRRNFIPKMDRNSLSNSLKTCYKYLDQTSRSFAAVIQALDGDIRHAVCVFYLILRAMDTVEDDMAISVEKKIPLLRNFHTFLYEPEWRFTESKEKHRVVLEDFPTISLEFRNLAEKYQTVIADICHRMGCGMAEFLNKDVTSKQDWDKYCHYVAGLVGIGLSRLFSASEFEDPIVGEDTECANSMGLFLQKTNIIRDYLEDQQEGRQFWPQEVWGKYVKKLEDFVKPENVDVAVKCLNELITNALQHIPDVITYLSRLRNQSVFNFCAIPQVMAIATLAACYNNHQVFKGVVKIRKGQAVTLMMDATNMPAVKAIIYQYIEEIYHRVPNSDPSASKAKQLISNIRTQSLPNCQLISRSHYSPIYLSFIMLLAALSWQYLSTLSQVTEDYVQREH
Description: In vitro inhibition of squalene synthase may be measured by the following procedure.
Rat liver microsomal squalene synthase activity was measured using radioactive farnesyl diphosphate as a substrate and quantitating squalene synthesis by counting the radioactive squalene formed.
Rat liver microsomes, the source of enzyme, were prepared according to the method of Gillies, P. J., et al., Exp. Molec. Pathol. 44: 329-339 (1986), a modification of the procedure of Erickson, S. K., and Cooper, A. D., Metabolism, 29: 991-996 (1980). Approximately 30 μg of microsomal protein was incubated for 10 minutes at 37° C. with 11 μM of ^3 H-farnesyl diphosphate, 49 mCi/mmol, and test compound in the presence of squalene (2 μL), Mg^++, KF, reduced B-nicotinamide adenine dinucleotide phosphate, dithiothreitol, and K2 PO4, pH 7.35, in a total volume of 200 μL. Oxygen was excluded from the closed incubation tube by degassing with nitrogen. The reaction was terminated by the addition of ethanolic KOH and after degassing with N2, the microsomal membranes were solubilized by heating at 60° C. for 30 minutes. The squalene was extracted into hexane, and the squalene was separated from all other radioactive molecules by passage over an activated alumina column. The solution was collected in scintillation vials, evaporated to dryness, liquid scintillation fluid was added, and the radioactivity was determined in a liquid scintillation counter. […]

Row | inhibition at 10 µM [1] [%] | inhibition at 10 µM [2] [%] | inhibition at 1 µM [2] [%] | inhibition at 1 µM [1] [%] | Structure (SMILES)
1 | 68 | – | 44 | – | CCCN(Cc1ccc(Nc2ccccc2)cc1)C(=O)[C@H]1[C@H](C(=O)O)[C@H](C(=O)N(CCC)Cc2ccc(Nc3ccccc3)cc2)[C@H]1C(=O)O [Example 63]
2 | 64 | – | 33 | – | CCCN(Cc1ccc(Sc2ccccc2)cc1)C(=O)C1C(C(=O)O)C(C(=O)N(CCC)Cc2ccc(Sc3ccccc3)cc2)C1C(=O)O (stereo not drawn) [Example 64]
3 | – | – | 47 | 61 | CCCN(CCc1ccc(Oc2ccccc2)cc1)C(=O)C1C(C(=O)O)C(C(=O)N(CCC)CCc2ccc(Oc3ccccc3)cc2)C1C(=O)O (stereo not drawn) [Example 67, (1α,2β,3β,4α)-1,3-Di[N-propyl-N-(2-(4-phenoxyphenyl)ethyl)aminocarbonyl]cyclobutane-2,4-dicarboxylic acid]
4 | 49 | – | 52 | – | COCCN(Cc1ccc(Oc2ccccc2)cc1)C(=O)C1C(C(=O)O)C(C(=O)N(CCOC)Cc2ccc(Oc3ccccc3)cc2)C1C(=O)O (stereo not drawn) [Example 68, (1α,2β,3β,4α)-1,3-Di[N-(2-methoxyethyl)-N-(4-phenoxybenzyl)aminocarbonyl]cyclobutane-2,4-dicarboxylic acid]
5 | – | – | 23 | 31 | CSCCN(Cc1ccc(Oc2ccccc2)cc1)C(=O)C1C(C(=O)O)C(C(=O)N(CCSC)Cc2ccc(Oc3ccccc3)cc2)C1C(=O)O (stereo not drawn) [Example 69, (1α,2β,3β,4α)-1,3-Di[N-(2-methylthioethyl)-N-(4-phenoxybenzyl)aminocarbonyl]cyclobutane-2,4-dicarboxylic acid]
6 | 77 | – | 76 | – | CCSCCN(Cc1ccc(Oc2ccccc2)cc1)C(=O)C1C(C(=O)O)C(C(=O)N(CCSCC)Cc2ccc(Oc3ccccc3)cc2)C1C(=O)O (stereo not drawn) [Example 70, (1α,2β,3β,4α)-1,3-Di[N-(2-ethylthioethyl)-N-(4-phenoxybenzyl)aminocarbonyl]cyclobutane-2,4-dicarboxylic acid]
7 | – | – | 25 | 32 | O=C(O)C1C(C(=O)N(CCSCc2ccccc2)Cc2ccc(Oc3ccccc3)cc2)C(C(=O)O)C1C(=O)N(CCSCc1ccccc1)Cc1ccc(Oc2ccccc2)cc1 (stereo not drawn) [Example 71, (1α,2β,3β,4α)-1,3-Di[N-(2-benzylthioethyl)-N-(4-phenoxybenzyl)aminocarbonyl]cyclobutane-2,4-dicarboxylic acid]
8 | – | – | 32 | 82 | O=C(O)C1C(C(=O)N(Cc2ccc(Oc3ccccc3)cc2)Cc2ccco2)C(C(=O)O)C1C(=O)N(Cc1ccc(Oc2ccccc2)cc1)Cc1ccco1 (stereo not drawn) [Example 72, (1α,2β,3β,4α)-1,3-Di[N-(furan-2-ylmethyl)-N-(4-phenoxybenzyl)aminocarbonyl]cyclobutane-2,4-dicarboxylic acid]

More lines, now with the values behind:

Row | Structure (SMILES) | inhibition at 10 µM [1] [%] | inhibition at 10 µM [2] [%] | inhibition at 1 µM [2] [%] | inhibition at 1 µM [1] [%]
9 | C=CCN(Cc1ccc(Oc2ccccc2)cc1)C(=O)[C@H]1[C@H](C(=O)O)[C@H](C(=O)N(CC=C)Cc2ccc(Oc3ccccc3)cc2)[C@H]1C(=O)O [Example 30, (1α,2β,3β,4α)-1,3-Di(N-allyl-N-(4-phenoxybenzyl)aminocarbonyl)cyclobutane-2,4-dicarboxylic acid] | 37 | 63 | – | –
10 | O=C(O)[C@H]1[C@H](C(=O)N(Cc2ccc(Oc3ccccc3)cc2)C2CC2)[C@H](C(=O)O)[C@H]1C(=O)N(Cc1ccc(Oc2ccccc2)cc1)C1CC1 [Example 31, (1α,2β,3β,4α)-1,3-Di[N-cyclopropyl-N-(4-phenoxybenzyl)aminocarbonyl]cyclobutane-2,4-dicarboxylic acid] | 74 | – | 23 | –
11 | CC(C)=CCC/C(C)=C/CCN(C)C(=O)[C@H]1[C@H](C(=O)O)[C@H](C(=O)N(C)CC/C=C(\C)CCC=C(C)C)[C@H]1C(=O)O [Example 32, (1α,2β,3β,4α)-1,3-Di[N-methyl-N-(4,8-dimethyl-3,7-nonadienyl)aminocarbonyl]cyclobutane-2,4-dicarboxylic acid] | 54 | 40 | – | –
12 | O=C(O)[C@H]1[C@H](C(=O)N(Cc2ccccc2)Cc2ccccc2)[C@H](C(=O)O)[C@H]1C(=O)N(Cc1ccccc1)Cc1ccccc1 [Example 33, (1α,2β,3β,4α)-1,3-Di[N,N-dibenzylaminocarbonyl]cyclobutane-2,4-dicarboxylic acid] | 64 | 43 | – | –
13 | O=C(O)[C@H]1[C@H](C(=O)N(Cc2ccccc2)Cc2ccc(Cl)cc2)[C@H](C(=O)O)[C@H]1C(=O)N(Cc1ccccc1)Cc1ccc(Cl)cc1 [Example 34, (1α,2β,3β,4α)-1,3-Di[N-benzyl-N-(4-chlorobenzyl)aminocarbonyl]cyclobutane-2,4-dicarboxylic acid] | 40 | 29 | – | –
14 | COC(=O)CN(Cc1ccc(Oc2ccccc2)cc1)C(=O)[C@H]1[C@H](C(=O)O)[C@H](C(=O)N(CC(=O)OC)Cc2ccc(Oc3ccccc3)cc2)[C@H]1C(=O)O [Example 42, (1α,2β,3β,4α)-1,3-Di[N-methoxycarbonylmethyl-N-(4-phenoxybenzyl)aminocarbonyl]cyclobutane-2,4-dicarboxylic acid] | 67 | – | 36 | –
15 | O=C(O)CCN(Cc1ccc(Oc2ccccc2)cc1)C(=O)C1C(C(=O)O)C(C(=O)N(CCC(=O)O)Cc2ccc(Oc3ccccc3)cc2)C1C(=O)O (stereo not drawn) [Example 44, (1α,2β,3β,4α)-1,3-Di[N-(2-carboxyethyl)-N-(4-phenoxybenzyl)aminocarbonyl]cyclobutane-2,4-dicarboxylic acid] | 81 | – | 30 | –
16 | CCCN(Cc1cccc(Oc2ccccc2)c1)C(=O)C1C(C(=O)O)C(C(=O)N(CCC)Cc2cccc(Oc3ccccc3)c2)C1C(=O)O (stereo not drawn) [Example 51, (1α,2β,3β,4α)-1,3-Di[N-propyl-N-(3-phenoxybenzyl)aminocarbonyl]cyclobutane-2,4-dicarboxylic acid] | 68 | – | 27 | –
17 | CCCN(Cc1ccc(Oc2ccccc2)s1)C(=O)C1C(C(=O)O)C(C(=O)N(CCC)Cc2ccc(Oc3ccccc3)s2)C1C(=O)O (stereo not drawn) [Example 53, (1α,2β,3β,4α)-1,3-Di[N-propyl-N-(5-phenoxythien-2-ylmethyl)aminocarbonyl]cyclobutane-2,4-dicarboxylic acid] | 69 | – | 23 | –
18 | CCCN(Cc1ccc(Oc2ccco2)cc1)C(=O)C1C(C(=O)O)C(C(=O)N(CCC)Cc2ccc(Oc3ccco3)cc2)C1C(=O)O (stereo not drawn) [Example 54] | 59 | – | 23 | –
19 | CCCN(Cc1ccc(Oc2cccc(C)c2)cc1)C(=O)C1C(C(=O)O)C(C(=O)N(CCC)Cc2ccc(Oc3cccc(C)c3)cc2)C1C(=O)O (stereo not drawn) [Example 57, (1α,2β,3β,4α)-1,3-Di{N-propyl-N-[4-(3-methylphenoxy)benzyl]aminocarbonyl}cyclobutane-2,4-dicarboxylic acid] | – | – | 37 | 26
20 | CCCN(Cc1ccc(Oc2ccc3ccccc3c2)cc1)C(=O)C1C(C(=O)O)C(C(=O)N(CCC)Cc2ccc(Oc3ccc4ccccc4c3)cc2)C1C(=O)O (stereo not drawn) [Example 58, (1α,2β,3β,4α)-1,3-Di{N-propyl-N-[4-(naphth-2-yloxy)benzyl]aminocarbonyl}cyclobutane-2,4-dicarboxylic acid] | – | – | 50 | 31
21 | CCCN(Cc1ccc(Oc2ccccc2)c(C)c1)C(=O)C1C(C(=O)O)C(C(=O)N(CCC)Cc2ccc(Oc3ccccc3)c(C)c2)C1C(=O)O (stereo not drawn) [Example 59, (1α,2β,3β,4α)-1,3-Di{N-propyl-N-[(3-methyl-4-phenoxy)benzyl]aminocarbonyl}cyclobutane-2,4-dicarboxylic acid] | 54 | – | 46 | –

Reference: patent US5631401A, “Inhibitors of protein farnesyltransferase and squalene synthase” (Abbott Laboratories, priority 1995, dated 1997)
